This note sets out measurements from PubChem BioAssay (NCI).

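Interpolation was linear, between the two tested concentrations surrounding the appropriate level; five concentrations were tested over 48 hours in 96-well plates. The concentration for 50% growth inhibition is given as GI50. TGI: concentration producing complete growth inhibition.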

Among the test systems are A549 NSCLC; CCRF-CEM leukemia; KM12 colon; LOX IMVI melanoma; M14 melanoma; MALME-3M melanoma; MDA-MB-435; MOLT-4 leukemia; NCI-H23 lung; SK-MEL-28 melanoma.
What all share (test): DTP human tumour cell line panel, 48 h

Consider `COc1ccc(Sc2nc3cc(N)cc(N)c3nc2-c2ccccc2)cc1`, for which the GI50 – broadly, the concentration that inhibits growth by half – is 42.4 µM in the test with A549 NSCLC; 2280 nM in the test on CCRF-CEM leukemia; 28.4 µM in the test with KM12 colon; 51 µM in the test on LOX IMVI melanoma; above 100 µM with M14 melanoma; 33200 nM with MALME-3M melanoma. Moreover, the GI50 in the test on MDA-MB-435 was above 100000 nM; with MOLT-4 leukemia, 4190 nM; with NCI-H23 lung it was above 100 µM; in the test with SK-MEL-28 melanoma it was 24.4 µM. Also, the TGI (in general, the concentration at which net growth stops) with A549 NSCLC is above 100 µM; with CCRF-CEM leukemia it was 8.36 µM; in the test on KM12 colon, above 100 µM; in the test with LOX IMVI melanoma it was above 100 µM; in the test on M14 melanoma, above 100 µM; with MALME-3M melanoma it was 95 µM. Further, the TGI with MDA-MB-435, in the test on MOLT-4 leukemia, in the test on NCI-H23 lung and in the test with SK-MEL-28 melanoma was above 100 µM in each case.

Turning to `CCCCCCCCCCCCSC1=C(Cl)C(=O)C(OC)=C(OC)C1=O`, the GI50 in the test with A549 NSCLC is 4.39 µM; in the test on CCRF-CEM leukemia, 1530 nM; with KM12 colon, 1.85 µM; in the test on LOX IMVI melanoma, 0.462 µM; in the test with M14 melanoma, 2.53 µM; in the test with MALME-3M melanoma it was 539 nM. Also, the GI50 in the test on MDA-MB-435 was 653 nM; with MOLT-4 leukemia, 617 nM; in the test on NCI-H23 lung, 3.36 µM; with SK-MEL-28 melanoma it was 5.93 µM. For the same molecule, the total growth inhibition concentration (TGI) with A549 NSCLC was 21.1 µM; with CCRF-CEM leukemia, above 100 µM; with KM12 colon, 11.6 µM; in the test on LOX IMVI melanoma, 5.38 µM; with M14 melanoma it was 18.4 µM; with MALME-3M melanoma it was 14.2 µM. The TGI in the test with MDA-MB-435 is 10.2 µM; with MOLT-4 leukemia it was 18.6 µM; in the test on NCI-H23 lung, 20.2 µM; with SK-MEL-28 melanoma it was 21.8 µM.

With `COc1cc(/C(=C2/O[C@@H]([C@H]3COC(C)(C)O3)[C@H]3OC(C)(C)O[C@@H]23)c2ccc3ccccc3c2)cc(OC)c1OC`, the GI50 in the test on A549 NSCLC was 3.09 µM; in the test with CCRF-CEM leukemia, 48300 nM; in the test with KM12 colon, 6 µM; in the test with LOX IMVI melanoma it was 3.39 µM; with M14 melanoma it was 6.7 µM; with MALME-3M melanoma it was 2070 nM. The GI50 in the test with MDA-MB-435 is 3610 nM; with MOLT-4 leukemia, above 100000 nM; with NCI-H23 lung it was 5.43 µM; with SK-MEL-28 melanoma, 2.86 µM. For the same molecule, the TGI was 9.55 µM in the test on A549 NSCLC; above 100 µM in the test with CCRF-CEM leukemia; above 100 µM in the test with KM12 colon; 19.8 µM in the test with LOX IMVI melanoma; 23.8 µM in the test with M14 melanoma; 5.59 µM in the test on MALME-3M melanoma. Further, the TGI in the test on MDA-MB-435 was 17.5 µM; in the test with MOLT-4 leukemia, above 100 µM; with NCI-H23 lung, above 100 µM; in the test with SK-MEL-28 melanoma it was 9.65 µM.

Consider `C[C@]12CC[C@@H]3c4cc(OC(F)F)c(OS(N)(=O)=O)cc4CC[C@H]3[C@@H]1CC[C@@H]2OS(N)(=O)=O`, for which the GI50 in the test on A549 NSCLC was 2.52 µM; in the test on KM12 colon, 1.62 µM; in the test with LOX IMVI melanoma, 1.25 µM; with M14 melanoma it was 0.631 µM; in the test with MALME-3M melanoma, 2350 nM; in the test on MDA-MB-435, 241 nM. Further, the GI50 was 1060 nM in the test with MOLT-4 leukemia, 2.44 µM in the test on NCI-H23 lung and 2.94 µM in the test with SK-MEL-28 melanoma. Further, the TGI in the test with A549 NSCLC is 34.4 µM; with CCRF-CEM leukemia, above 70.7 µM; in the test on KM12 colon, 20 µM; in the test on LOX IMVI melanoma, 19.1 µM; in the test on M14 melanoma it was 17.7 µM; in the test with MALME-3M melanoma it was 22 µM. Also, the TGI stood at 3.04 µM in the test on MDA-MB-435, 47.7 µM in the test on MOLT-4 leukemia, 21.6 µM in the test with NCI-H23 lung and 20.3 µM in the test on SK-MEL-28 melanoma.

Consider `Cn1cc(C2=C(c3c4n(c5ccccc35)CCC(CN)C4)C(=O)NC2=O)c2ccccc21` (centres undefined), for which the GI50 was 3.05 µM in the test on A549 NSCLC; 2430 nM in the test with CCRF-CEM leukemia; 3.42 µM in the test on KM12 colon; 3.83 µM in the test on LOX IMVI melanoma; 3.46 µM with M14 melanoma; 2750 nM in the test with MALME-3M melanoma. The GI50 in the test on MDA-MB-435 was 2520 nM; in the test on MOLT-4 leukemia it was 2190 nM; with NCI-H23 lung, 3.6 µM; in the test with SK-MEL-28 melanoma, 3.82 µM. Also, the TGI amounted to 7.83 µM with A549 NSCLC; 7.23 µM in the test on CCRF-CEM leukemia; 6.92 µM in the test with KM12 colon; 7.53 µM with LOX IMVI melanoma; 7.58 µM in the test on M14 melanoma; 6.07 µM with MALME-3M melanoma. In addition, the TGI stood at 5.97 µM in the test with MDA-MB-435, 6.73 µM with MOLT-4 leukemia, 7.74 µM with NCI-H23 lung and 7.31 µM in the test on SK-MEL-28 melanoma.

`N#C[Se]CCN1C(=O)C2C(C1=O)[C@H]1C=C[C@@H]2S1` (some centres undefined): the GI50 with A549 NSCLC was 1.93 µM; in the test with CCRF-CEM leukemia, 1840 nM; in the test with KM12 colon, 2.32 µM; in the test on LOX IMVI melanoma, 1.67 µM; in the test on M14 melanoma it was 1.54 µM; in the test on MALME-3M melanoma, 1530 nM. Also, the GI50 with MDA-MB-435 was 1700 nM; in the test on MOLT-4 leukemia, 1310 nM; with NCI-H23 lung it was 2.46 µM; with SK-MEL-28 melanoma it was 1.92 µM. Also, the TGI amounted to 4.56 µM with A549 NSCLC; 6.14 µM in the test on CCRF-CEM leukemia; 5.38 µM in the test on KM12 colon; 4.12 µM in the test with LOX IMVI melanoma; 3.62 µM in the test on M14 melanoma; 3.65 µM in the test with MALME-3M melanoma. For the same molecule, the TGI is 3.26 µM in the test on MDA-MB-435, 8.06 µM in the test with MOLT-4 leukemia, 6.51 µM in the test with NCI-H23 lung and 5.02 µM in the test with SK-MEL-28 melanoma.

On to `C#CCN(Cc1nc2cc(C(F)(F)F)ccc2nc1-c1ccccc1)c1ccc(C)cc1`, for which the GI50 in the test with A549 NSCLC is 9.23 µM; in the test with CCRF-CEM leukemia, above 55700 nM; in the test on KM12 colon, 9.94 µM; with LOX IMVI melanoma, 24.8 µM; with M14 melanoma, 5.4 µM; in the test with MALME-3M melanoma, 15700 nM. Besides, the GI50 in the test on MDA-MB-435 was 2730 nM; in the test with MOLT-4 leukemia it was 3100 nM; in the test with NCI-H23 lung, 8.48 µM; with SK-MEL-28 melanoma it was 13.9 µM. Also, the TGI in the test on A549 NSCLC is above 93 µM; in the test on CCRF-CEM leukemia, above 100 µM; in the test with KM12 colon, above 24.6 µM; in the test with LOX IMVI melanoma, above 48.5 µM; in the test with M14 melanoma it was 32 µM; in the test with MALME-3M melanoma it was 42.3 µM. The TGI in the test on MDA-MB-435 is 9.09 µM; in the test with MOLT-4 leukemia, above 79.9 µM; in the test on NCI-H23 lung, above 34.7 µM; in the test on SK-MEL-28 melanoma, above 41 µM.
